From patent publication US11518783B2, “Peptides having tetrahedral mimicking groups as inhibitors of rhomboid proteases” (priority 2016, dated 2022)
Peptide text beside a SMILES is read from it. * marks the point of attachment. CHO = C-terminal aldehyde in place of the boronate, O=C*; boroAla = C[C@H](N*)B(O)O

Experiments:
[1] = tested on: PfROM4; test: Heterologous cell-based rhomboid cleavage assay in co-transfected HEK293 cells, EBA175 cleavage by PfROM4; parameters: species or system P. falciparum; conditions: western of conditioned media
Excerpt: (§1) FIG. 4A-F illustrates RiBn is a non-toxic, selective inhibitor of only PfROM4. A. Chemical structure of one embodiment of RiBn, a peptide of 10 aa with boronate warhead (SEQ ID NO: 3). Ac denotes an N-terminal acetyl moiety, while the C-terminal boronate warhead is on the right. B. Western blot analysis of EBA175 and AMA1 cleavage by PfROM4 in a heterologous cleavage assay. Co-transfected HEK293 cells were conditioned in the presence of absence of the indicated concentrations of RiBn. Cells transfected with AMA1 were conditioned in the presence or absence of the metalloprotease inhibitor (WI) BB-94 to reduce background cleavage by endogenous cellular proteases. N-terminal cleavage products were released into media (anti-GFP, top panels). Lysates were probed for expression of substrate (anti-GFP, middle panel) and enzyme (anti-HA, bottom panel). Quantification of PfROM4 inhibition by RiBn (right panel, mean±s.e.m.). […] Inhibition was analyzed in three independent biological experiments. […] Flow cytometry analysis (calcein AM fluorescence) of the same cells (right panels). […] For data in D and E, toxicity analyses were conducted in three independent biological experiments (once for each assay readout). […]
(§2) Cleavage of substrates and the activity of enzymes was determined in a slightly modified heterologous cleavage assay. […] Two-color quantitative westerns were converted to greyscale.

[2] = tested on: PfROM1; test: Heterologous cell-based rhomboid cleavage assay, PfROM1; parameters: species or system P. falciparum; conditions: highest RiBn concentration, transfection-based assay
Excerpt: as §1, §2

[3] = biological target: T1, human rhomboid enzyme (Homo sapiens, UniProt Q9NX52); test: Heterologous cell-based rhomboid cleavage assay, human rhomboid enzyme; conditions: transfection-based assay, analyzed in parallel
T1 construct: expressed in transfected cells; host or cells: HEK293T (ATCC CRL-11268), pcDNA3.1
T1 sequence (Q9NX52 1-303): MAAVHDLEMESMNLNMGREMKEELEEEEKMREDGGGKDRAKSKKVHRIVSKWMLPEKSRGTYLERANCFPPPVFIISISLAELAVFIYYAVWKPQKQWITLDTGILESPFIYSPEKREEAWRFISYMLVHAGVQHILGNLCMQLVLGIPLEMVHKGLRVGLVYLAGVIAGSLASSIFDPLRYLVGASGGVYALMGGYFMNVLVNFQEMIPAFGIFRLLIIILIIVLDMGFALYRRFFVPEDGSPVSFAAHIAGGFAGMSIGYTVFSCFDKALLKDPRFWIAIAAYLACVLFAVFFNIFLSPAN
Excerpt: as §1, §2

[4] = tested on: other five rhomboid proteases known to reside on the cell surface; test: Heterologous cell-based rhomboid cleavage assay, other cell surface rhomboid enzymes and their substrates
Excerpt: as §1, §2

[5] = LIVE/DEAD viability of RiBn-treated HEK293 cells (fluorescence microscopy and flow cytometry); format: cell-based, human; conditions: human, highest RiBn dose, ~24 hours, calcein AM, read-out: cell viability by flow cytometry
Excerpt: as §1, with “Lysates were probed for expression of substrate (anti-GFP, middle panel) and enzyme (anti-HA, bottom panel).” left out
(§3) Cell viability of RiBn-treated HEK293 cells was determined with a LIVE/DEAD Viability/Cytotoxicity Kit (Molecular Probes). Calcein AM and ethidium homodimer-1 stained cells were imaged on an inverted fluorescence microscope (Nikon) with the appropriate bandpass filters. […]

[6] = tested on: HEK293 cells; test: as above; format: cell-based, human; conditions: highest concentrations
Excerpt: as §1, with “Lysates were probed for expression of substrate (anti-GFP, middle panel) and enzyme (anti-HA, bottom panel).” left out
as §3

[7] = tested on: HEK293 cells; test: Cell cycle analysis of HEK293 cells by flow cytometry (propidium iodine); format: cell-based, human; conditions: 24 hours
[8] = tested on: P. falciparum 3d7 parasites; test: P. falciparum growth (parasitemia) on human erythrocytes, flow cytometry with acridine orange; format: cell-based; conditions: for inhibition of parasite growth: P. falciparum on human red blood cells
Method: (§4) Inhibitor potency was verified in three independent biological experiments. […] Quantification was conducted once. C.
FIG. 6A-6C illustrates RiBn cures blood stage cultures of malaria by iteratively inhibiting parasite invasion and retarding growth. A. Blood stage cultures containing 1% well synchronized schizont stage parasitized erythrocytes were cultured in the presence or absence of 0.3 mM RiB, as indicated, and analyzed at various time points via flow cytometry (acridine orange, top panels) and fluorescent microscopy (acridine orange staining, bottom panels). After 18 hours of culturing, RiBn was washed out of one replicate of the RiBn treated cultures and monitored as above, as indicated. […] C. Quantification of absolute parasitemia at various time points in blood stage parasite cultures treated with the indicated concentrations of RiBn. In a-c, growth defect was confirmed in three independent biological experiments, while the parallel washout was conducted once and is shown.
(§5) Asexual P. falciparum 3d7 parasites (kind gift of Dr David Sullivan, Johns Hopkins School of Public Health) were cultured in human erythrocytes (O-donor, purchased from Interstate Blood Bank, Inc.) under standard conditions. Sorbitol synchronization was performed ˜1/week or as needed for experiments. For invasion assays, schizont-stage parasites were magnetically purified as previously described (MACS Miltenyi Biotec) and incubated at the appropriate parasitemia (0.2% for dose-response curves) in a 96-well plate in the presence or absence of the peptide-warhead inhibitors at 1.5% hematocrit. Flow cytometry analysis for absolute parasitemia determination and growth characterization was performed by removing a small volume of culture, washing cells in 1×PBS, resuspending them in 1×PBS containing 0.1 μg/mL acridine orange and monitoring FL1/FL3 fluorescence on a FACSCalibur instrument (BD Biosciences). Methanol-fixed, acridine orange stained parasitized erythrocytes were imaged on an inverted fluorescence microscope (Nikon) with bandpass filters. Images were overlaid in Photoshop CC (Adobe). All flow cytometry data were analyzed in FlowJo.

[9] = tested on: P. falciparum merozoites; test: P. falciparum invasion assay with synchronized schizont-stage parasites; format: cell-based
Method: as §4, §5

[10] = tested on: human erythrocytes; conditions: erythrocytes cultured ~18 hours with RiBn
Method: B. Bright-field microscopy (top panel) and flow cytometry analysis (Forward Scatter vs Side Scatter, bottom panel) of erythrocytes cultured in the presence or absence of RiBn for ˜18 hours. Quantification was conducted once.

[11] = biological target: GlpG (Escherichia coli, UniProt P09391); conditions: GlpG in living E. coli cells, side-by-side comparison
Sequence of GlpG (P09391 whole entry): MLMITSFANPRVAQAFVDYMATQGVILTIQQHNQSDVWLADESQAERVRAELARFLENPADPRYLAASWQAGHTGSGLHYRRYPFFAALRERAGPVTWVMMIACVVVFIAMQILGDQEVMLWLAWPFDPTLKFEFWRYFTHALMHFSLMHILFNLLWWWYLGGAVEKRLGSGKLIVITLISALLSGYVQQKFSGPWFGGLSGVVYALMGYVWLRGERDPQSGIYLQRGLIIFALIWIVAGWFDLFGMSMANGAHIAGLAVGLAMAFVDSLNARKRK
Method: F. Inhibition of endogenous GlpG activity in living E. coli cells grown in liquid culture. Δ is the negative control in which GlpG was deleted from the E. coli genome. Peptide inhibitors were added at the indicated concentrations directly to growing cultures. Shown are quantitative infrared anti-flag westerns, with the top band being the TatA-Flag uncut substrate, and the lower band being the cut product. Quantification of cleavage was used to calculate the EC50 concentrations (graph on right, mean±s.e.m.). Inhibition was analyzed in three independent biological experiments, each with a full spectrum of concentrations per compound.
Dose-response curves were analyzed in the R environment. Curve fitting and graphing was performed with the DRC package using data appropriate models. EC50 values are depicted along with the standard error of the fit.

Compound	inhibition of EBA175 processing by PfROM4 [1]	inhibition of PfROM1 [2]	inhibition of the human rhomboid enzyme [3]	effect on cell viability or function (translation, glycosylation, trafficking, secretion of substrates) ([4]; transfected HEK293 cells, highest RiBn concentrations)	inhibition of the other five cell surface rhomboid proteases ([4]; transfection-based assay, analyzed in parallel)	viability [5]	cell viability in fluorescence-based live/dead cell assay [6]	adherence, growth, or cell cycle distribution of treated versus untreated cells [7]	inhibition of parasite growth [8]	effect on other parasite stages including egress ([8]; delayed parasites through lifecycle stages)	growth of parasites that invaded in presence of RiBn ([8]; subsequent time points, versus vehicle-treated controls)	effect of washing out RiBn after the first round of invasion ([8]; washout after 18 hours, 0.3 mM)	maximal inhibition of merozoite invasion ([9]; first round of infection, flow cytometry)	inhibition of merozoite invasion of red blood cells ([9]; synchronized cultures, ~24 hours)	host cell (red blood cell) viability [10]	increase in potency relative to the aldehyde of the same tetrapeptide [11]	increase in potency relative to the chloromethylketone of the same tetrapeptide [11]
CSCC[C@H](NC(=O)[C@H](CO)NC(=O)[C@H](CCCNC(=N)N)NC(=O)[C@H](Cc1ccccc1)NC(=O)[C@H](CCCNC(=N)N)NC(=O)[C@H](CCCCN)NC(C)=O)C(=O)N[C@@H](CCC(N)=O)C(=O)N[C@@H](Cc1ccc(O)cc1)C(=O)N[C@@H](CO)C(=O)N[C@@H](C)B(O)O [RiBn] (Ac-KRFRSMQYS-boroAla)	inhibited EBA175 processing by PfROM4 in a dose-dependent manner	completely unaffected	no inhibitory effect	no apparent effect on cell viability or function	no inhibitory effect	92.4%	no change in cell viability	no apparent change	dose-dependent inhibition of parasite growth	minimally or not affected	grew considerably slower than vehicle-treated controls	rescued parasite growth	~50%	dose-dependent inhibition of merozoite invasion	not affecting host cell viability	–	–
Ac-VRMA-B(OH)2	–	–	–	–	–	–	–	–	–	–	–	–	–	–	–	> 100 fold	> 400 fold
peptide-aldehyde: same peptide sequence as RiBn but replacing the boronate with an aldehyde moiety (Ac-KRFRSMQYSA-{CHO}; also: aldehyde moiety replacing the boronate, place not given here) [reference compound]	completely abolished PfROM4 inhibition	–	–	–	–	–	–	–	abolished inhibition	–	–	–	–	–	–	–	–
